Experimental data from patent publication US10793531B2, “Triazole derivatives and their use as PDE4 activators” (MIRONID LIMITED, priority 2015, dated 2020).

Key:
[1] = In vitro clearance using human hepatocytes (Experiment 6); type: in vitro ADME; details: human, cryopreserved human hepatocytes; 1 μM compound, 1 million cells/ml, 37° C.
Procedure: (§1) Human hepatocyte stability is considered the gold standard method for evaluating the hepatic metabolism of drugs in vitro. The in vitro clearance of Example A was evaluated using cryopreserved human hepatocytes according to the method of Lau et al. (Lau, Y. Y. et al. Drug Metab. Dispos. 30: 1446-1454, 2002) with minor modifications.
(§2) Cryopreserved hepatocytes were thawed in a water bath at 37° C. and transferred to a tube containing 50 ml of hepatocyte thaw medium. The hepatocytes were centrifuged at 500 rpm for 3 min. The supernatant was removed and the hepatocytes were resuspended in medium, mixed gently and centrifuged again at 500 rpm for 3 min. The supernatant was discarded and the hepatocyte pellet was gently resuspended in medium to a final density of 2 million cells/ml.
(§3) Incubations were carried out at a final test compound concentration of 1 μM. Stock solutions of the compounds were prepared in DMSO and diluted to the desired concentrations before adding to the hepatocytes. Incubations were carried out with a hepatocyte concentration of 1 million cells/ml. Samples (100 μL) were incubated at 37° C. for 0, 15, 30, 60 and 120 min in duplicate. At the end of the incubation time, 200 μl of acetonitrile with internal standard was added and the wells were sealed. […]
(§4) The samples were analysed by LC-MS/MS using a Sciex API 4000™ system.

[2] = tested on: cryopreserved human hepatocytes; assay: as above; type: in vitro ADME; details: 1 μM compound, 1 million cells/ml, 37° C.
Procedure: as §1, §2, §3, §4

[3] = tested on: androgen-insensitive (AI) LNCaP human prostate cancer cells; assay: Xcelligence proliferation assay, androgen-insensitive LNCaP cells (Experiment 5); type: cell-based; details: normalised cell index at 72 hours; FIG. 10
Procedure: In this study, the potential utility of PDE4 long form activators in the treatment of prostate cancer was studied using the LNCaP human prostate cancer cell line. The experiments were carried out according to the method described by Henderson et al. (Henderson, D. J. P., Byrne, A., Dulla, K., Jenster, G., Hoffmann, R., Baillie, G. S., Houslay, M. D. Br. J. Cancer 110: 1278-1287, 2014).
Androgen-sensitive (AS) LNCaP cells were maintained in RPMI1640 supplemented with 10% FBS (Seralabs), 2 mM L-glutamine and 1,000 U penicillin-streptomycin. LNCaP androgen-insensitive (AI) cells were generated in-house by culturing the LNCaP-AS cells in RPMI1640 supplemented with 10% charcoal stripped FBS, 2 mM L-glutamine and 1,000 U penicillin-streptomycin for a minimum of four weeks. All tissue culture reagents were, from Life Technologies.
Cell proliferation is measured as a function of changing electrical impedance. Values are represented by cell index number, a dimensionless unit of measurement representing the cell status, which increases as cells adhere to 96-well electrode plates and divide. […]
Cell indices were measured every 10 minutes for up to 100 hours, analysed using RICA software and normalised to the cell index of vehicle-treated cells (n=3).

half-life at 1 μM [1]: 54 min | stability in human hepatocytes (in words) [2]: moderately stable
SMILES: CCc1nc(-c2ccc(Cl)c(F)c2)nn1CC(=O)NCc1cccc(F)c1 [Example A, N-(3-Fluorobenzyl)-2-[3-(4-chloro-3-fluorophenyl)-5-ethyl-1H-1,2,4-triazol-1-yl]acetamide]
proliferation of androgen-insensitive (AI) LNCaP cells (in words) [3]: inhibits the proliferation
